Source: patent US5668161A, “Substituted thiazoles for the treatment of inflammation” (G.D. Searle & Co., priority 1996, dated 1997)
Read-outs that look alike come from different tables or passages of the source.

What was measured:
human COX-I = human COX-I (Homo sapiens, UniProt P23219); assay: COX I activity in vitro, human (PGE2 by ELISA)
murine COX-I = target: T1, murine COX-I (Mus musculus, UniProt P22437); assay: COX I activity in vitro, murine (PGE2 by ELISA)
T1 sequence (P22437 27-602): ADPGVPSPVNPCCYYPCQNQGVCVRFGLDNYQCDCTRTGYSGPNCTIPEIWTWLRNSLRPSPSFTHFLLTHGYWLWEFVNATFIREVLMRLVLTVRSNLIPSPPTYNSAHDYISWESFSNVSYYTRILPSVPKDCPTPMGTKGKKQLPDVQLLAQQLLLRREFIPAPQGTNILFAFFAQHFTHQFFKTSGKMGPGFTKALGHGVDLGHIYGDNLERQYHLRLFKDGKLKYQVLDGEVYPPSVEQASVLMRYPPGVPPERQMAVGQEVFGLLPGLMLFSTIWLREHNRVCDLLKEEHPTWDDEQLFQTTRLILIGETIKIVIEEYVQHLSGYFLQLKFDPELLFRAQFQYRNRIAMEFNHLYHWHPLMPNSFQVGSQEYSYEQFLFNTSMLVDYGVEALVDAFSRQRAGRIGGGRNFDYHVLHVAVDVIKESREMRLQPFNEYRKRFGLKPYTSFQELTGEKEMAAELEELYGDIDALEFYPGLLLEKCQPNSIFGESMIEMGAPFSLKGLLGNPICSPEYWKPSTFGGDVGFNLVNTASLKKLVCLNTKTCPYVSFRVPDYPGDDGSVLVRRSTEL

human COX-II = target: T2, human COX-II (Homo sapiens, UniProt P35354); assay: COX II activity in vitro, human (PGE2 by ELISA)
T2 sequence (P35354 18-604): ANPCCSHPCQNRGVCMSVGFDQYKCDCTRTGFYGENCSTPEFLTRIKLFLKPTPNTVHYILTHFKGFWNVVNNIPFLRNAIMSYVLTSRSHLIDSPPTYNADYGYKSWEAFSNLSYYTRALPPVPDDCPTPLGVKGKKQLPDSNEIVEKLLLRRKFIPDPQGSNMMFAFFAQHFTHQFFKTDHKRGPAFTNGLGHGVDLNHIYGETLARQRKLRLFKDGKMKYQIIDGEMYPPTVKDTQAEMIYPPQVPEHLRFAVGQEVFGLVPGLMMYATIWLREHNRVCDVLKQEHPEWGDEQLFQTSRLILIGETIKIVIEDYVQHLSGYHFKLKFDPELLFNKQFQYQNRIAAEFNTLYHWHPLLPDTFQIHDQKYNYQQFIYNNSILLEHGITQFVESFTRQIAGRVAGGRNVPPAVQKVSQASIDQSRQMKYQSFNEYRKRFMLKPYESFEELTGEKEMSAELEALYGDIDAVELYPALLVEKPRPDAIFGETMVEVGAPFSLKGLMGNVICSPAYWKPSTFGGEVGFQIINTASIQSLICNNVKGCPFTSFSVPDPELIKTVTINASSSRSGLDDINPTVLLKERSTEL

murine COX-II = target: T3, murine COX-II (Mus musculus, UniProt Q05769); assay: biochemical
T3 sequence (Q05769 18-604): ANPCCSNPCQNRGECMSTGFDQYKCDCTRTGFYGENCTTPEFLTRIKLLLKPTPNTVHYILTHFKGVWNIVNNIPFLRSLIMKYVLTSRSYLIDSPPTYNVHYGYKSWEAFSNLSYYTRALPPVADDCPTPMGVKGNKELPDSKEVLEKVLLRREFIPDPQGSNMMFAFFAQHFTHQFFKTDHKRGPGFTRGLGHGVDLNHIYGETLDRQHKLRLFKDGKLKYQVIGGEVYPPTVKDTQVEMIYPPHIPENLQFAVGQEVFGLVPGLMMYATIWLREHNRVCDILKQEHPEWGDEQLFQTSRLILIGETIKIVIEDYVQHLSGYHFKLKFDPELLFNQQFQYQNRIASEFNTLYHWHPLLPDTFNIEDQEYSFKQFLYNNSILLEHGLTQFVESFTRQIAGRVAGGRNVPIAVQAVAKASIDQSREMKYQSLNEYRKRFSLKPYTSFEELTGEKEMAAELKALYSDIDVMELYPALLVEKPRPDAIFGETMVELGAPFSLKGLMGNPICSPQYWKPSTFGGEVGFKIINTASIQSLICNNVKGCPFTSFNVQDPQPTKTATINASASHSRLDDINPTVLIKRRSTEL

carrageenan foot edema = assay: Rat Carrageenan Foot Pad Edema Test; format: in vivo, rat (Male Sprague-Dawley); settings: oral, 3 hours after carrageenan, read-out: RAT PAW EDEMA % Inhibition; for inhibition at 20 mg/kg: @ 20 mg/kg body weight
Protocol: Male Sprague-Dawley rats were selected in each group so that the average body weight was as close as possible. Rats were fasted with free access to water for over sixteen hours prior to the test. […] One hour later a subplantar injection of 0.1 mL of 1% solution of carrageenan/sterile 0.9% saline was administered and the volume of the injected foot was measured with a displacement plethysmometer connected to a pressure transducer with a digital indicator. Three hours after the injection of the carrageenan, the volume of the foot was again measured. […] Rat Carrageenan-induced Analgesia Test

Sequence of human COX-I (P23219 24-599): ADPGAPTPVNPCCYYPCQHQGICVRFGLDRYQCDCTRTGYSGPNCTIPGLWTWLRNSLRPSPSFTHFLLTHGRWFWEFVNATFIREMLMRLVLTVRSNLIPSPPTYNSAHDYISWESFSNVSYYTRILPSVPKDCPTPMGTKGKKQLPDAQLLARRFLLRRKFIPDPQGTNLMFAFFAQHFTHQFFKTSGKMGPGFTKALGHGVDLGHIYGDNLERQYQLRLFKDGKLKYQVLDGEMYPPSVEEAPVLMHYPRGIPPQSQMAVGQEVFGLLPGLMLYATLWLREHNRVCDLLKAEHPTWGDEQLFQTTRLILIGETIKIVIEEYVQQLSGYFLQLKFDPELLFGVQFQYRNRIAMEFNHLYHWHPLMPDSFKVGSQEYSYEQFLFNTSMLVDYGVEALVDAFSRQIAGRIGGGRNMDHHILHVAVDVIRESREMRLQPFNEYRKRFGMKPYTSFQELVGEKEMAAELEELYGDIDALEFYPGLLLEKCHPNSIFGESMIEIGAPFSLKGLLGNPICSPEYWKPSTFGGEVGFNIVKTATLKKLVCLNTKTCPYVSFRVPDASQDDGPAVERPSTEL

SMILES	IC50 (human COX-I)	IC50 (murine COX-I)	IC50 (human COX-II)	IC50 (murine COX-II)	IC50 (human COX-I; read-out: COX I ID50, human (h), 10 μM arachidonic acid)	inhibition at 20 mg/kg (carrageenan foot edema)	inhibition at 10 mg/kg (carrageenan foot edema)
CS(=O)(=O)c1ccc(-c2sc(COc3ccc(Cl)cc3)nc2-c2ccc(F)cc2)cc1 [Example 1, 2-((4-Chlorophenoxy)methyl)-4-(4-fluorophenyl)-5-(4-methylsulfonylphenyl)thiazole]	> 10000 nM	> 100000 nM	< 100 nM	–	–	–	–
CS(=O)(=O)c1ccc(-c2sc(-c3ccccc3Cl)nc2-c2ccccc2)cc1 [Example 2, 2-(2-Chlorophenyl)-4-phenyl-5-(4-methylsulfonylphenyl)thiazole]	–	–	< 100 nM	–	–	–	–
CS(=O)(=O)c1ccc(-c2sc(-c3ccccc3Cl)nc2-c2cccc(F)c2)cc1 [Example 3, 2-(2-Chlorophenyl)-4-(3-fluorophenyl)-5-(4-methylsulfonylphenyl)thiazole]	–	–	< 100 nM	–	–	–	–
Cc1ccccc1-c1nc(-c2ccccc2Cl)sc1-c1ccc(S(C)(=O)=O)cc1 [Example 5, 2-(2-Chlorophenyl)-4-(2-methylphenyl)-5-(4-methylsulfonylphenyl)thiazole]	> 100000 nM	–	< 100 nM	–	–	–	–
CS(=O)(=O)c1ccc(-c2sc(-c3ccccc3Cl)nc2-c2ccccc2Cl)cc1 [Example 9, 2-(2-Chlorophenyl)-4-(2-chlorophenyl)-5-(4-methylsulfonylphenyl)thiazole]	> 100000 nM	–	< 100 nM	–	–	–	–
CS(=O)(=O)c1ccc(-c2sc(-c3ccccc3Cl)nc2-c2ccc(Cl)cc2)cc1 [Example 10, 2-(2-Chlorophenyl)-4-(4-chlorophenyl)-5-(4-methylsulfonylphenyl)thiazole]	> 100000 nM	–	< 100 nM	–	–	14%	–
COc1ccc(-c2nc(-c3ccccc3Cl)sc2-c2ccc(S(C)(=O)=O)cc2)cc1 [Example 11, 2-(2-Chlorophenyl)-4-(4-methoxyphenyl)-5-(4-methylsulfonylphenyl)thiazole]	> 100000 nM	–	< 100 nM	–	–	–	–
CS(=O)(=O)c1ccc(-c2sc(C(Br)S(=O)(=O)c3cccs3)nc2-c2ccc(F)cc2)cc1 (stereo not shown) [Example 14]	> 100000 nM	39800 nM	600 nM	500 nM	–	–	–
Cc1ccc(-c2nc(-c3ccccc3Cl)sc2-c2ccc(S(C)(=O)=O)cc2)cc1 [Example 15, 2-(2-Chlorophenyl)-5-(4-methylsulfonylphenyl)-4-(4-methylphenyl)thiazole]	> 100000 nM	–	200 nM	–	–	–	–
CS(=O)(=O)c1ccc(-c2sc(CCCc3ccc(Br)cc3)nc2-c2ccc(F)cc2)cc1 [Example 21]	–	> 10000 nM	< 100 nM	< 100 nM	–	–	–
NS(=O)(=O)c1ccc(-c2sc(COc3cc(Cl)cc(Cl)c3)nc2-c2ccc(F)cc2)cc1 [Example 34, 4-[2-((3,5-Dichlorophenoxy)methyl)-4-(4-fluorophenyl)-5-thiazolyl]benezenesulfonamide]	< 100 nM	–	–	–	–	–	–
CS(=O)(=O)c1ccc(-c2sc(COc3cccc(Cl)c3)nc2-c2ccccc2F)cc1 [Example 36, 2-(3-Chlorophenoxy)methyl-4-(2-fluorophenyl)-5-[4-(methylsulfonyl)phenyl]thiazole]	> 100000 nM	–	< 100 nM	–	–	–	–
CS(=O)(=O)c1ccc(-c2sc(-c3ccccc3Cl)nc2-c2ccc(Br)cc2)cc1 [Example 40, 4-(4-Bromophenyl)-2-(2-chlorophenyl)-5-[4-(methylsulfonyl)phenyl]thiazole]	> 100000 nM	–	< 100 nM	–	–	–	–
COc1ccc(OCc2nc(-c3ccc(F)cc3)c(-c3ccc(S(C)(=O)=O)cc3)s2)cc1 [Example 41, 4-(4-Fluorophenyl)-2-[(4-methoxyphenoxy)methyl]-5-[4-(methylsulfonyl)phenyl]thiazole]	> 100000 nM	–	< 100 nM	–	–	4%	–

Second part, led by results:

IC50 (human COX-I)	IC50 (murine COX-I)	IC50 (human COX-II)	IC50 (murine COX-II)	IC50 (human COX-I; read-out: COX I ID50, human (h), 10 μM arachidonic acid)	SMILES	inhibition at 20 mg/kg (carrageenan foot edema)	inhibition at 10 mg/kg (carrageenan foot edema)
–	6200 nM	< 100 nM	< 100 nM	70000 nM	CS(=O)(=O)c1ccc(-c2sc(-c3ccccc3Cl)nc2-c2ccc(F)cc2F)cc1 [Example 4, 4-(2,4-Difluorophenyl)-2-(2-chlorophenyl)-5-(4-methylsulfonylphenyl)thiazole]	–	–
> 10000 nM	1600 nM	< 100 nM	< 100 nM	–	CS(=O)(=O)c1ccc(-c2sc(-c3ccc(F)c(Cl)c3)nc2-c2ccc(F)cc2)cc1 [Example 12, 2-(3-Chloro-4-fluorophenyl)-4-(4-fluorophenyl)-5-(4-methylsulfonylphenyl)thiazole]	53%	–
1100 nM	700 nM	< 100 nM	< 100 nM	–	CS(=O)(=O)c1ccc(-c2sc(C(F)(F)F)nc2-c2ccc(F)cc2)cc1 [Example 23, 4-(4-Fluorophenyl)-5-(4-methylsulfonylphenyl)-2-trifluoromethylthiazole]	39.5%	–
2600 nM	–	< 100 nM	–	–	CS(=O)(=O)c1ccc(-c2sc(-c3ccc(Br)s3)nc2-c2ccc(F)cc2)cc1 [Example 25, 2-(5'-Bromo-2'-thienyl)-4-(4-fluorophenyl)-5-(4-methylsulfonylphenyl)thiazole]	–	–
700 nM	–	< 100 nM	–	–	NS(=O)(=O)c1ccc(-c2sc(-c3ccccc3Cl)nc2-c2ccc(F)cc2)cc1 [Example 32, 4-[4-(4-Fluorophenyl)-2-(2-chlorophenyl)-5-thiazolyl]benzensulfonamide]	–	–
> 100000 nM	–	< 100 nM	–	–	CS(=O)(=O)c1ccc(-c2sc(COc3ccccc3Cl)nc2-c2ccc(F)cc2)cc1 [Example 38, 2-((2-Chlorophenoxy)methyl)-4-(4-fluorophenyl)-5-(4-methylsulfonylphenyl)thiazole]	–	–
–	> 100000 nM	–	500 nM	–	CS(=O)(=O)c1ccc(-c2sc(Nc3cc(Cl)cc(Cl)c3)nc2-c2ccc(F)cc2)cc1 [Example 52, 2-(3,5-Dichlorophenylamino)-4-(4-fluorophenyl)-5-(4-methylsulfonylphenyl)thiazole]	–	7%
> 100000 nM	> 100000 nM	< 100 nM	< 100 nM	–	CS(=O)(=O)c1ccc(-c2nc(C(F)(F)F)sc2-c2ccc(F)cc2)cc1 [Example 56, 5-(4-fluorophenyl)-4-(4-methylsulfonylphenyl)-2-trifluoromethylthiazole]	–	20%
> 100000 nM	4900 nM	< 100 nM	> 100 nM	–	CS(=O)(=O)c1ccc(-c2sc(-c3c(F)c(F)c(F)c(F)c3F)nc2-c2ccc(F)cc2)cc1 [Example 57]	–	2%
